# Measurements from US20150337276A1, “ENZYME HAVING A NMDA RECEPTOR ANTAGONIST ACTIVITY AND/OR AN ANTICHOLINERGIC ACTIVITY” (priority 2012, published 2015).
# Legend:
# cortical neurons = test: Neurite network density (NF-H labeling) of cortical neurons under basal conditions, potential neurotoxic effect; conditions: enzymes 2.5 μM for 30 hours, glutamate 100 μM for 6 hours
# [1] = tested on: glutamate intoxicated-cortical neurons; test: Neurite network density (NF-H labeling) of glutamate-intoxicated cortical neurons, neuroprotective effect; type: cell-based, rat; conditions: intoxicated conditions (glutamate 100 μM, 6 hours)
# Procedure: Culture conditions: 37° C., 5% CO2
# At DIV9, the reference MK-801 (10 μM) was pre-incubated for 30 minutes before glutamate intoxication. Cortical neurons were then incubated for 6 hours with 100 μM of glutamate in presence or not (intoxicated control) of test compounds, the solvent control or the reference. A control without glutamate (non-intoxicated control) was performed in parallel. All experimental conditions were performed in n=3.
# All the images were taken under the same conditions.
# Raw data were analyzed with Microsoft Excel® software.
# NMDA receptor = test: NMDA current recording by patch clamp (whole cell, voltage clamp -30 mV) in dorsal root ganglia nociceptor neurons; type: cell-based, rat; conditions: for Percentage inhibition of NMDA current: NMDA 250 μM, holding potential -30 mV
# Procedure: In one embodiment, the NMDA antagonist activity of the enzyme of the invention is measured by electrophysiology, as shown in Example 3. In one embodiment, said measurement is performed on dorsal root ganglion nociceptor neurons of rats.
# The culture conditions of dorsal root ganglia neurons of rats were adapted from Hao and Delmas (J Neurosci. 2010, 6; 30(40)).
# NMDA current recordings are performed in neurons of small and medium diameter (nociceptors). Neurons are identified visually and electrophysiologically by measuring their membrane capacitance. […] These neurons express the NMDA receptor in the dorsal root ganglia. Nociceptors are specifically identified by the presence of TTX-resistant Nav1.8 sodium current. Each neuron is tested for the presence upstream of Nav1.8.
# NMDA currents are low amplitude currents. Thus, electrical leakage is carefully checked during recording. Infusion or injection of products was performed close to neurons to avoid changes in concentration (dilution effect). Media infusion was extemporaneously daily handled. Products OPN-001 were diluted from stock solutions and stored at 4° C. The data were collected using an Axopatch amplifier 200-B, the Clampex software (PClamp V10, Molecular Device) and stored and analyzed using Clampfit.
smiles,measurement,setting,value
N[C@@H](CCC(=O)O)C(=O)O [Glutamate],Mean NF-H-positive neurite surface,"cortical neurons; basal conditions (no glutamate), n=3",21503 μm^2
same,Intoxication (%),"cortical neurons; basal conditions, normalized to control",34%
C[C@]12N[C@H](Cc3ccccc31)c1ccccc12 [MK801],Mean NF-H-positive neurite surface,"[1]; enzymes 2.5 μM pre-incubated 24 hours, MK801 10 μM pre-incubated 30 minutes, n=3",32319 μm^2
same,Protection (%),"[1]; enzymes 2.5 μM, MK801 10 μM",~96%
[Cl-].[Cl-].[Zn+2] [ZnCl2],"efficiency in inhibiting NMDA current, in words","NMDA receptor; 5 nM, alone",not efficient
same,"time for the blocking effect on NMDA current to occur, in words",NMDA receptor; 50 nM and 500 nM,within seconds
same,"inhibition of the NMDA current, trace (FIG. 1B), in words","NMDA receptor; 50 nM, 200 μl applied alone, NMDA 250 μM for 80 s",inhibits all of the NMDA current
same,Percentage inhibition of NMDA current,NMDA receptor; test substance 5 nM,0%
same,Percentage inhibition of NMDA current,"NMDA receptor; test substance 50 nM, mean of neurons",100%
same,Percentage inhibition of NMDA current,"NMDA receptor; test substance 500 nM, mean of neurons",100%
